Measurements: the supplement of paper PMC9663587

Key:
THZ1 [1] = compound: T1, CN(C)C/C=C/C(=O)Nc1ccc(C(=O)Nc2cccc(Nc3ncc(Cl)c(-c4c[nH]c5ccccc45)n3)c2)cc1 [THZ1]; assay: increase in dead-cell fraction, 72 h; higher = more death;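 note: breast cancer cell lines in 384-well plates, stained with Hoechst plus LIVE/DEAD far red dye and imaged, cells above an LDR intensity threshold counted dead, Hoechst-negative corpses included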
Neratinib/HKI272 = compound: CCOc1cc2ncc(C#N)c(Nc3ccc(OCc4ccccn4)c(Cl)c3)c2cc1NC(=O)/C=C/CN(C)C [Neratinib/HKI272]; assay: as above
[2] = compound: CC(=O)c1c(C)c2cnc(Nc3ccc(N4CCNCC4)cn3)nc2n(C2CCCC2)c1=O; assay: as above
LEE011/Ribociclib = compound: CN(C)C(=O)c1cc2cnc(Nc3ccc(N4CCNCC4)cn3)nc2n1C1CCCC1 [LEE011/Ribociclib]; assay: as above
Flavopiridol [3] = compound: T2, CN1CC[C@H](c2c(O)cc(O)c3c(=O)cc(-c4ccccc4Cl)oc23)[C@H](O)C1 [Flavopiridol]; assay: as above
BSJ-03-123 = compound: CC(=O)c1c(C)c2cnc(Nc3ccc(N4CCN(CCOCCOCCOCCNC(=O)COc5cccc6c5C(=O)N(C5CCC(=O)NC5=O)C6=O)CC4)cn3)nc2n(C2CCCC2)c1=O [BSJ-03-123]; assay: as above
[4] = compound: CCc1cnn2c(NCc3ccc[n+]([O-])c3)cc(N3CCCC[C@H]3CCO)nc12; assay: as above
[5] = compound: CCN1CCN(Cc2ccc(Nc3ncc(F)c(-c4cc(F)c5nc(C)n(C(C)C)c5c4)n3)nc2)CC1; assay: as above
THZ1 [6] = compound: T1, THZ1; assay: GR value, 72 h; higher = faster growth (1 = untreated, <0 = killing);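 note: breast cancer and non-malignant breast epithelial lines, nine half-log doses, viable cells counted by Hoechst and LIVE/DEAD dye imaging versus time-zero plates and DMSO controls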
THZ531 = compound: CN(C)C/C=C/C(=O)Nc1ccc(C(=O)N2CCC[C@@H](Nc3ncc(Cl)c(-c4c[nH]c5ccccc45)n3)C2)cc1 [THZ531]; assay: as above
[7] = compound: CC(=O)c1c(C)c2cnc(Nc3ccc(N4CCNCC4)cn3)nc2n(C2CCCC2)c1=O; assay: as above
Flavopiridol [8] = compound: T2, Flavopiridol; assay: as above

Cell Line: SUM1315
- increase in dead-cell fraction (THZ1 [1]; 0.0001 µM): 0.0131
- increase in dead-cell fraction (THZ1 [1]; 0.0003162 µM): -0.0262
- increase in dead-cell fraction (THZ1 [1]; 0.001 µM): -0.0208
- increase in dead-cell fraction (THZ1 [1]; 0.003162 µM): 0.0035
- increase in dead-cell fraction (THZ1 [1]; 0.01 µM): -0.0115
- increase in dead-cell fraction (THZ1 [1]; 0.03162 µM): -0.0232
- increase in dead-cell fraction (THZ1 [1]; 0.1 µM): -0.0483
- increase in dead-cell fraction (THZ1 [1]; 0.3162 µM): 0.0421
- increase in dead-cell fraction (THZ1 [1]; 1 µM): 0.61
- increase in dead-cell fraction (Neratinib/HKI272; 0.0003162 µM): 0.0036
- increase in dead-cell fraction (Neratinib/HKI272; 0.001 µM): 0.0058
- increase in dead-cell fraction (Neratinib/HKI272; 0.003162 µM): 0.0067
- increase in dead-cell fraction (Neratinib/HKI272; 0.01 µM): 0.0047
- increase in dead-cell fraction (Neratinib/HKI272; 0.03162 µM): 0.0181
- increase in dead-cell fraction (Neratinib/HKI272; 0.1 µM): 0.0402
- increase in dead-cell fraction (Neratinib/HKI272; 0.3162 µM): 0.0578
- increase in dead-cell fraction (Neratinib/HKI272; 1 µM): 0.0857
- increase in dead-cell fraction (Neratinib/HKI272; 3.162 µM): 0.0855
- increase in dead-cell fraction ([2]; 0.0003162 µM): -0.0007
- increase in dead-cell fraction ([2]; 0.001 µM): -0.0011
- increase in dead-cell fraction ([2]; 0.003162 µM): -0.0024
- increase in dead-cell fraction ([2]; 0.01 µM): 0.0003
- increase in dead-cell fraction ([2]; 0.03162 µM): 0.0166
- increase in dead-cell fraction ([2]; 0.1 µM): 0.0188
- increase in dead-cell fraction ([2]; 0.3162 µM): 0.0295
- increase in dead-cell fraction ([2]; 1 µM): 0.0213
- increase in dead-cell fraction ([2]; 3.162 µM): 0.0282
- increase in dead-cell fraction (LEE011/Ribociclib; 0.001 µM): 0.0236
- increase in dead-cell fraction (LEE011/Ribociclib; 0.003162 µM): 0.0101
- increase in dead-cell fraction (LEE011/Ribociclib; 0.01 µM): 0.0448
- increase in dead-cell fraction (LEE011/Ribociclib; 0.03162 µM): 0.0191
- increase in dead-cell fraction (LEE011/Ribociclib; 0.1 µM): 0.054
- increase in dead-cell fraction (LEE011/Ribociclib; 0.3162 µM): 0.071
- increase in dead-cell fraction (LEE011/Ribociclib; 1 µM): 0.0703
- increase in dead-cell fraction (LEE011/Ribociclib; 3.162 µM): 0.0888
- increase in dead-cell fraction (LEE011/Ribociclib; 10 µM): 0.114
- increase in dead-cell fraction (Flavopiridol [3]; 0.0001 µM): 0.0039
- increase in dead-cell fraction (Flavopiridol [3]; 0.0003162 µM): -0.0083
- increase in dead-cell fraction (Flavopiridol [3]; 0.001 µM): 0.0048
- increase in dead-cell fraction (Flavopiridol [3]; 0.003162 µM): 0.0087
- increase in dead-cell fraction (Flavopiridol [3]; 0.01 µM): 0.0083
- increase in dead-cell fraction (Flavopiridol [3]; 0.03162 µM): 0.0248
- increase in dead-cell fraction (Flavopiridol [3]; 0.1 µM): -0.0084
- increase in dead-cell fraction (Flavopiridol [3]; 0.3162 µM): 0.383
- increase in dead-cell fraction (Flavopiridol [3]; 1 µM): 0.596
- increase in dead-cell fraction (BSJ-03-123; 0.001 µM): -0.0091
- increase in dead-cell fraction (BSJ-03-123; 0.003162 µM): 0.0246
- increase in dead-cell fraction (BSJ-03-123; 0.01 µM): 0.0376
- increase in dead-cell fraction (BSJ-03-123; 0.03162 µM): 0.0297
- increase in dead-cell fraction (BSJ-03-123; 0.1 µM): 0.0105
- increase in dead-cell fraction (BSJ-03-123; 0.3162 µM): -0.0013
- increase in dead-cell fraction (BSJ-03-123; 1 µM): 0.033
- increase in dead-cell fraction (BSJ-03-123; 3.162 µM): 0.03
- increase in dead-cell fraction (BSJ-03-123; 10 µM): 0.0923
- increase in dead-cell fraction ([4]; 0.0001 µM): -0.0013
- increase in dead-cell fraction ([4]; 0.0003162 µM): -0.0006
- increase in dead-cell fraction ([4]; 0.001 µM): 0.0062
- increase in dead-cell fraction ([4]; 0.003162 µM): 0.0147
- increase in dead-cell fraction ([4]; 0.01 µM): 0.0232
- increase in dead-cell fraction ([4]; 0.03162 µM): 0.578
- increase in dead-cell fraction ([4]; 0.1 µM): 0.63
- increase in dead-cell fraction ([4]; 0.3162 µM): 0.64
- increase in dead-cell fraction ([4]; 1 µM): 0.599
- increase in dead-cell fraction ([5]; 0.001 µM): 0.0105
- increase in dead-cell fraction ([5]; 0.003162 µM): 0.0024
- increase in dead-cell fraction ([5]; 0.01 µM): -0.0018
- increase in dead-cell fraction ([5]; 0.03162 µM): 0.0186
- increase in dead-cell fraction ([5]; 0.1 µM): 0.0167
- increase in dead-cell fraction ([5]; 0.3162 µM): 0.025
- increase in dead-cell fraction ([5]; 1 µM): 0.0225
- increase in dead-cell fraction ([5]; 3.162 µM): 0.0197
- increase in dead-cell fraction ([5]; 10 µM): 0.132
- GR value (THZ1 [6]; 0.0001 µM): 1.24 GR
- GR value (THZ1 [6]; 0.0003162 µM): 1.06 GR
- GR value (THZ1 [6]; 0.001 µM): 1.06 GR
- GR value (THZ1 [6]; 0.003162 µM): 0.773 GR
- GR value (THZ1 [6]; 0.01 µM): 0.999 GR
- GR value (THZ1 [6]; 0.03162 µM): 0.982 GR
- GR value (THZ1 [6]; 0.1 µM): 0.978 GR
- GR value (THZ1 [6]; 0.3162 µM): 0.391 GR
- GR value (THZ1 [6]; 1 µM): -0.906 GR
- GR value (THZ531; 0.0001 µM): 0.9 GR
- GR value (THZ531; 0.0003162 µM): 1.1 GR
- GR value (THZ531; 0.001 µM): 0.822 GR
- GR value (THZ531; 0.003162 µM): 0.987 GR
- GR value (THZ531; 0.01 µM): 1.1 GR
- GR value (THZ531; 0.03162 µM): 1.14 GR
- GR value (THZ531; 0.1 µM): 1.04 GR
- GR value (THZ531; 0.3162 µM): 0.685 GR
- GR value (THZ531; 1 µM): -0.604 GR
- GR value ([7]; 0.0003162 µM): 1.07 GR
- GR value ([7]; 0.001 µM): 0.996 GR
- GR value ([7]; 0.003162 µM): 0.938 GR
- GR value ([7]; 0.01 µM): 0.855 GR
- GR value ([7]; 0.03162 µM): 0.593 GR
- GR value ([7]; 0.1 µM): 0.522 GR
- GR value ([7]; 0.3162 µM): 0.365 GR
- GR value ([7]; 1 µM): 0.417 GR
- GR value ([7]; 3.162 µM): 0.293 GR
- GR value (Flavopiridol [8]; 0.0001 µM): 1.09 GR
- GR value (Flavopiridol [8]; 0.0003162 µM): 0.97 GR
- GR value (Flavopiridol [8]; 0.001 µM): 0.741 GR
- GR value (Flavopiridol [8]; 0.003162 µM): 0.795 GR
- GR value (Flavopiridol [8]; 0.01 µM): 0.876 GR
- GR value (Flavopiridol [8]; 0.03162 µM): 0.76 GR
- GR value (Flavopiridol [8]; 0.1 µM): 0.647 GR
- GR value (Flavopiridol [8]; 0.3162 µM): -0.451 GR
- GR value (Flavopiridol [8]; 1 µM): -0.887 GR
